Like-named read-outs stand apart in the source and are kept apart here.
How the values were obtained:
[1] = Determination of bio-accumulation: urinary clearance pharmacokinetic study in rats; conditions: male Sprague Dawley rats, 73 micro Moles per kg, oral gavage; for Compound-related Effects: clinical signs of toxicity and gross necropsy at 96 hours post-dose; for % Recovery (96 h): recovery of compound in urine 96 h post-dose; for T ½: renal (urinary) elimination half-life, parent compound in urine by fluorine NMR, exponential least squares curve fitting
Protocol: (§1) The perfluorinated and partially fluorinated carboxylates were evaluated for urinary clearance using a pharmacokinetic study in rats. The goal was to measure the total amount of parent compound eliminated via urinary output and estimate the rate of elimination.
(§2) The study utilized male Sprague Dawley rats, 6 to 8 weeks of age, and approximately 200 to 250 g body weight at study onset. The test compounds of Table 2 were administered at a dose of 73 micro Moles per kg body weight in rats (N=3 animals per tested compound). All test compounds were prepared in sterile deionized water and given to rats via oral gavage. After test compound administration, the rats were housed individually in metabolism cages for urine collection: 0 to 6 hours, 6 to 24 hours, 24 to 48 hours and 72 to 96 hours. Animals were observed throughout the study for clinical signs of toxicity. Gross necropsy was performed at the termination of each study (96 hours post-dose) with sera and liver samples being retained from each animal.
(§3) The concentration of the parent compound or metabolites thereof were quantitatively measured via fluorine NMR on each urine sample for each animal at each time point based on internally added standards.
(§4) In Table 2, T1/2 is the time required for the amount of a particular substance in a biological system to be reduced to one half of its value by biological processes when the rate of removal is approximately exponential. In these examples the value of T1/2 is calculated by exponential least squares curve fitting (y=AeBX and T1/2=0.693/B) where y represents the concentration of analyte in urine and x represents time in hours.

[2] = rat, in vivo, po
Protocol: as §1, §2, §3, §4

Row | Compound-related Effects [2] | Compound | Compound-related Effects [1] | % Recovery (96 h) [1] [%] | T ½ [1] [days]
1 | – | N.O=C(O)C(F)(F)C(F)(F)OC(F)(F)C(F)(F)C(F)(F)C(F)(F)F [Example 1, C4F9—O—CF2—CF2—COONH4] | Hepatomegaly | 42 | 1.29
2 | Hepatomegaly | N.O=C(O)C(F)(F)C(F)(F)C(F)(F)C(F)(F)C(F)(F)OC(F)C(F)(F)F (centres unmarked) [Example 3, CF3—CFH—O—(CF2)5—COONH4] | – | – | –
3 | – | N.O=C(O)C(F)(F)C(F)(F)C(F)(F)C(F)(F)C(F)(F)C(F)(F)C(F)(F)F [Example C1, CF3(CF2)6COONH4] | Hepatomegaly | 6 | ~22.9
4 | Hepatomegaly | N.O=C(O)C(F)(F)OC(F)(F)C(F)(OC(F)(F)C(F)(F)C(F)(F)F)C(F)(F)F (centres unmarked) [Example C2, CF3CF2CF2OCF(CF3)CF2OCF2COONH4] | – | – | –

From US20070276103A1, “Fluorinated Surfactants” (3M Innovative Properties Company, priority 2006, published 2007)
